Assay results from the supplement of paper PMC5412046.
Structures can show the parent of a compound that is named as a salt.

What was measured:
SB.msgc-1 = assay: AC50 for growth inhibition (viability) (log10 M); higher = less potent; conditions: SB.msgc-1 (sporadic gastric cancer)
Outline: (§1)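 Values are log half-maximal activity concentrations from four-parameter fits of DMSO-normalised viability, restricted to high-quality curve classes. Patient-derived gastric cancer cells, hereditary or sporadic, were plated at 500 cells per 1536 well in 5 μL medium and given 23 nL compound in DMSO by pintool across 11 threefold dilutions, the top final concentration being 46 μM. Viability was read by ViewLux luminescence after 48 h and a 30 min CellTiter-Glo step at room temperature.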

SB.mhdgc-1 = assay: as above; conditions: SB.mhdgc-1 (hereditary c.1380delA CDH1 gastric cancer)
Outline: as §1

Compound	AC50 for growth inhibition (log10 M) (SB.msgc-1)	AC50 for growth inhibition (log10 M) (SB.mhdgc-1)
CC1(C)CCC(=C(CN2CCN(CC2)C3=CC=C(C=C3)C(=O)N[S+]([O-])(=O)C4=CC(=C(N[C@H](CCN5CCOCC5)CSC6=CC=CC=C6)C=C4)[S+]([O-])(=O)C(F)(F)F)\C1)/C7=CC=C(Cl)C=C7 [Navitoclax]	-5.13	-6.13
COc1cc(NC(=O)c2ccc(-c3ccc(Cl)cc3)o2)cc(OC)c1	-5.58	-5.73
CCN(CC)CCNC(=O)c1c(C)[nH]c(/C=C2\C(=O)Nc3ccc(F)cc32)c1C [Sunitinib malate]	-4.42	-5.32
COc1cc(C)c(Sc2cnc(NC(=O)c3ccc(CNC(C)C(C)C)cc3)s2)cc1C(=O)N1CCN(C(C)=O)CC1 (stereo unspecified) [ITK inhibitor]	-4.73	-4.78
O=C(CC12CC3CC(CC(C3)C1)C2)Nc1cccc2nc(NCCNCCO)ccc12	-4.78	-4.83
c1ccc(CNc2nc(NCc3ccccc3)c3ccccc3n2)cc1	-5.03	-5.03
CN1C(=O)C(=C/2N(C(=O)N(C3CC3)C(=O)C2=C1/NC4=CC=C(I)C=C4F)C5=CC=CC(=C5)NC(C)=O)\C [Trametinib]	-6.63	-5.03
CC(O)(C[S+](=O)([O-])c1ccc(F)cc1)C(=O)Nc1ccc(C#N)c(C(F)(F)F)c1 (stereo unspecified) [Bicalutamide]	-5.98	-6.43
CNC(=O)[C@H](CC/1=C/N=C\2/C=C\C\C=C12)NC(=O)[C@H](CC(C)C)CC(=O)NO [GM-6001]	-5.58	-6.68
N#Cc1c(NC(=O)c2cccc3ccccc23)sc2c1CCCC2 [TCS JNK 5a]	-5.98	-5.88
Nc1nc(Cl)nc2c1ncn2[C@H]1C[C@H](O)[C@@H](CO)O1 [Cladribine]	-5.83	-6.58
Cc1coc2c1C(=O)C(=O)c1c-2ccc2c1CCCC2(C)C [Tanshinone IIA]	-4.68	-5.58
OC[C@H]1O[C@H]([C@@H](F)[C@@H]1O)N2\C=C/C(=O)NC2=O	-5.13	-5.08
O=C(NCCCNc1nc(Nc2cccc(NC(=O)N3CCCC3)c2)ncc1I)c1cccs1 [BX-795]	-4.88	-4.83
CC(C)C(=O)Nc1ccc([N+](=O)[O-])c(C(F)(F)F)c1 [Flutamide]	-5.63	-5.83
COc1cc2c(Nc3ccc(Br)cc3F)ncnc2cc1OCC1CCN(C)CC1 [Vandetanib]	-4.73	-4.68
CC(C)C[C@H](NC(=O)[C@@H](NC(=O)c1cccc(-c2ccccc2)n1)[C@@H](C)O)B(O)O [Delanzomib]	-7.43	-7.38
COc1cc2ncnc(-n3nc(-c4ccccn4)nc3N)c2cc1OC	-4.78	-5.03
COc1cc(C(C)C)c(Oc2cnc(NC(CO)CO)nc2N)cc1I [Ro 51]	-6.18	-6.63
CCc1cnn2c(NCc3ccc[n+]([O-])c3)cc(N3CCCC[C@H]3CCO)nc12 [Dinaciclib]	-7.88	-8.03
CO[C@H]1/C=C/O[C@@]2(C)Oc3c(C)c(O)c4c(O)c(c(/C=N\N5CCN(C6CCCC6)CC5)c(O)c4c3C2=O)NC(=O)/C(C)=C\C=C\[C@H](C)[C@H](O)[C@@H](C)[C@@H](O)[C@@H](C)[C@H](OC(C)=O)[C@@H]1C [Rifapentine]	-6.33	-7.38
CC1(C)CCC[C@]2(C)[C@H]3CC(=O)O[C@]3(C)CC[C@@H]12 [Sclareolide]	-4.78	-5.03
CCNC(=O)c1cc2c(-c3cc(OCCN4CCCC4)c(Cl)cc3Cl)nc(N)nc2s1	-6.38	-5.53
CC1=C(/C=C/C(C)=C/C=C/C(C)=C/C=C/C=C(C)/C=C/C=C(C)/C=C/C2=C(C)CCCC2(C)C)C(C)(C)CCC1 [beta-Carotene]	-4.88	-5.13
COC[C@H](c1ccc(C(F)(F)F)cc1)N1CCN(C2(C)CCN(C(=O)c3c(C)ncnc3C)CC2)C[C@H]1C.O=C(O)/C=C\C(=O)O [Vicriviroc]	-4.78	-5.33
NC/1=N/[C@]2(COC[C@H]2CS1)C3=CC(=CC=C3F)NC(=O)C4=NC=C(F)C=C4	-5.48	-5.93
Cc1nc(N)ncc1-c1nc(N2CCOCC2)c2sc(C(C)(C)O)cc2n1 [GNE-490]	-7.43	-6.38

Compound	AC50 for growth inhibition (log10 M) (SB.msgc-1)	AC50 for growth inhibition (log10 M) (SB.mhdgc-1)
COc1ccc(-c2cc3nccn3c(Nc3ncccc3C(N)=O)n2)cc1OC [BAY61-3606]	-4.98	-5.53
O=C(O)Cc1cccc(OCCCN(Cc2cccc(C(F)(F)F)c2Cl)CC(c2ccccc2)c2ccccc2)c1 [GSK-3965]	-4.68	-4.78
CC\1=C(C(\N=C(/N1)C2=CC(=NC=C2)Cl)C3=C(F)C=C(Cl)C=C3)/C(=O)NC4=C(F)C=C5[NH]N=CC5=C4 (stereo unspecified) [GSK-25]	-4.63	-5.08
Oc1cccc(-c2nc(N3CCOCC3)c3oc4ncccc4c3n2)c1 [PI-103]	-4.92	-6.12
C#CCC(Cc1cnc2nc(N)nc(N)c2n1)c1ccc(C(=O)N[C@@H](CCC(=O)O)C(=O)O)cc1 (stereo partly specified) [Pralatrexate]	-7.28	-6.58
CN[S+](=O)([O-])CCc1ccc2[nH]cc(C3CCN(C)CC3)c2c1 [Naratriptan hydrochloride]	-6.83	-7.08
Nc1nccc(-c2ccc3noc(-c4ccc(Cl)cc4)c3c2)n1 [Pim 1 inhibitor 2]	-5.03	-5.48
COC1=CC=C(C(=C1)OC(C)C)C/2=N/[C@@H]([C@@H](N2C(=O)N3CCNC(=O)C3)C4=CC=C(Cl)C=C4)C5=CC=C(Cl)C=C5 [Nutlin-3]	-4.78	-5.93
CCCCc1oc2ccccc2c1C(=O)c1cc(I)c(OCCN(CC)CC)c(I)c1 [Amiodarone]	-5.03	-4.88
CCC(=O)NC[C@H](Cc1ccc(OCCc2nc(-c3ccccc3)oc2C)cc1)N/C(C)=C\C(=O)c1ccc(C(F)(F)F)cc1 [GW-6471]	-4.73	-5.48
Cn1c(=O)n(-c2ccc(C(C)(C)C#N)cc2)c2c3cc(-c4cnc5ccccc5c4)ccc3ncc21 [BEZ235]	-5.33	-6.88
NC(=O)NO [Hydroxyurea]	-6.88	-6.08
CC1=CC=C(C=C1)N(C\C2=N\CCN2)C3=CC=CC(=C3)O [Phentolamine mesilate]	-4.68	-4.98
COc1ccc2c(c1)c(CC(=O)O)c(C)n2C(=O)c1ccc(Cl)cc1 [Indomethacin]	-5.93	-6.03
CN(C)CC(C)(C)CNc1nn2c(-c3ccccc3)nnc2cc1C1CCC1 [Akt-I-1]	-4.68	-6.33
CC(C)Nc1cc(C(F)(F)F)cc2nc(NC(=O)c3cccnc3)nn12 [S-99]	-5.08	-5.28
COc1cc2ncn(-c3cc(OCc4ccccc4C(F)(F)F)c(C(N)=O)s3)c2cc1OC	-5.63	-5.43
Cc1ccc([S+](=O)([O-])N[C@@H](Cc2ccccc2)C(=O)CCl)cc1 [TPCK]	-4.73	-4.78
Nc1ccccc1NC(=O)c1ccc(CNC(=O)OCc2cccnc2)cc1 [Entinostat]	-5.88	-4.83
Nc1ncnc2c1c(-c1cnc3[nH]ccc3c1)nn2C1CCCC1 [PP-121]	-5.38	-5.78
CN1C(=O)\C(=C/C(=C1/NC2=C(F)C=C(I)C=C2)C(=O)NOCCO)C [AZD-8330]	-7.58	-4.78
O=C(Nc1ncc(-c2cc(C(F)F)nn2-c2c(Cl)cccc2Cl)s1)C1CC1 [BMS-3]	-6.18	-6.13
O=C1NC(=O)/C(=C/c2ccc3nccc(-c4ccncc4)c3c2)S1 [GSK-615]	-6.03	-6.33
CCc1ccc(OCc2ccccc2C(=O)Nc2ccc3nc(C)cc(N)c3c2)cc1 [JTC-801]	-4.98	-5.43
NC1(Cc2ccc(Cl)cc2)CCN(c2ncnc3[nH]ccc23)CC1	-4.78	-4.83
O=C(CCCCCCC(=O)Nc1ccccc1)NO [Vorinostat]	-5.58	-5.63
